In one series the test system is HBV DNA replication. Briefly: Inhibition of HBV DNA replication, real-time PCR, HepG 2.2.15 cells. The format is cell-based, Hepatitis B virus. The settings on record: Hepatitis B virus, HepG2.2.15; HepG 2.2.15 cells; means of two independent experiments. The procedure: (§1) Based on our previous description, inhibitory activity on HBV (HBsAg, HBeAg and HBV DNA) was evaluated. […] Cytotoxicity was assayed with a modified 3-(4,5-dimethylthiazole-2-yl)-2,5-diphenyltetrazolium bromide (MTT) method (Gibco Invitrogen, Carlsbad, CA, USA). The anti-HBV antigen secretion activities were determined by the enzyme linked immunosorbent assay (ELISA; Autobio Diagnostics Co., Ltd, China). A real-time PCR assay was applied to detect the inhibitory activity on HBV DNA replication.
In general terms: Quantitative PCR measures a nucleic acid by following its amplification.

Series [1] is described as follows: Cytotoxicity, modified MTT method. The format is cell-based. To be noted: human; 50 % cytotoxicity concentration in HepG 2.2.15 cells; means of two independent experiments. The procedure: as §1
(In general: Formazan colour is commonly taken as a measure of viable cells.)

For the next series, the system named is HBeAg secretion. The series is described as follows: microbe, parasite or virus in culture. The class given is cell-based, Hepatitis B virus. To be noted: Hepatitis B virus, HepG2.2.15, read-out: HBeAg IC50. As to the method:
as §1

Another series deals with HBsAg secretion. The series is described as follows: microbe, parasite or virus in culture. The settings on record: Hepatitis B virus, HepG2.2.15, read-out: HBsAg IC50. The class given is cell-based, Hepatitis B virus. As to the method: as §1
The subject of series [2] is liver injury induced by D-galactosamine and lipopolysaccharide. Set-up: method as in PMID 12880307. The settings on record: liver injury induced by D-galactosamine and lipopolysaccharide in mice; cited from earlier work.
In series [3] the test system is herpes simplex virus type I. The arrangement: method as in doi:10.3109/13880209509088139. To be noted: cited from earlier work.

For orientation: IC50 means the concentration at which inhibition is half-maximal. What is called CC50 is the concentration giving 50% cytotoxicity. `CC1(C)CCC[C@](C)([C@H]2CC[C@]3(C)[C@@H]2[C@H](O)C[C@@H]2[C@@]4(C)CC[C@H](O)C(C)(C)[C@@H]4CC[C@]23C)O1` [PD, Panaxadiol]: the IC50 in the series on HBV DNA replication is 148 µM; with HBeAg secretion, over 2280 µM; with HBsAg secretion, over 2280 µM. Moreover, in series [1], the midpoint of cytotoxicity, the CC50, lay at 923 µM.

For the compound `CC1(C)CCC[C@](C)([C@H]2CC[C@]3(C)[C@@H]2[C@H](O)C[C@@H]2[C@@]4(C)CC[C@H](O)C(C)(C)[C@@H]4[C@@H](O)C[C@]23C)O1` [PT, Panaxatriol], the half-maximal inhibitory concentration (IC50) in the series on HBV DNA replication was 669 µM; in the series with HBeAg secretion, over 2420 µM; in the series on HBsAg secretion, over 2420 µM. Further, in series [1], the CC50 is over 2420 µM.

With `CC(C)=CCC[C@](C)(O[C@@H]1O[C@H](CO[C@@H]2OC[C@@H](O)[C@H](O)[C@H]2O)[C@@H](O)[C@H](O)[C@H]1O)[C@H]1CC[C@]2(C)[C@@H]1[C@H](O)C[C@@H]1[C@@]3(C)CC[C@H](O[C@@H]4O[C@H](CO)[C@@H](O)[C@H](O)[C@H]4O[C@@H]4O[C@H](CO)[C@@H](O)[C@H](O)[C@H]4O)C(C)(C)[C@@H]3CC[C@]12C` [Rb3, ginsenoside Rb3], the hepatoprotective activity entry in series [2] is reported as “showed hepatoprotective activity”.

Take `CC(C)=CCC[C@](C)(O[C@@H]1O[C@H](CO[C@@H]2O[C@@H](CO)[C@H](O)[C@H]2O)[C@@H](O)[C@H](O)[C@H]1O)[C@H]1CC[C@]2(C)[C@@H]1[C@H](O)C[C@@H]1[C@@]3(C)CC[C@H](O[C@@H]4O[C@H](CO)[C@@H](O)[C@H](O)[C@H]4O[C@@H]4O[C@H](CO)[C@@H](O)[C@H](O)[C@H]4O)C(C)(C)[C@@H]3CC[C@]12C` [Rc, ginsenoside Rc]: the hepatoprotective activity entry in series [2] is on record as “showed hepatoprotective activity”.

For `CC(C)=CCC[C@](C)(O[C@@H]1O[C@H](CO)[C@@H](O)[C@H](O)[C@H]1O)[C@H]1CC[C@]2(C)[C@@H]1[C@H](O)C[C@@H]1[C@@]3(C)CC[C@H](O[C@@H]4O[C@H](CO)[C@@H](O)[C@H](O)[C@H]4O[C@@H]4O[C@H](CO)[C@@H](O)[C@H](O)[C@H]4O)C(C)(C)[C@@H]3CC[C@]12C` [Rd, ginsenoside Rd], the hepatoprotective activity entry in series [2] is “showed hepatoprotective activity”.

`C[C@H](Cn1cnc2c(N)ncnc21)OCP(=O)(O)O` [Tf, Tenofovir, reference compound]: the 50% inhibitory concentration (IC50) with HBV DNA replication was determined as 0.71 µM; in the series on HBeAg secretion, 1240 µM; with HBsAg secretion, 1390 µM. The CC50 in series [1] is over 1720 µM.

In the case of `CC(C)=CCC[C@](C)(O[C@@H]1O[C@H](CO[C@@H]2O[C@H](CO)[C@@H](O)[C@H](O)[C@H]2O)[C@@H](O)[C@H](O)[C@H]1O)[C@H]1CC[C@]2(C)[C@@H]1[C@H](O)C[C@@H]1[C@@]3(C)CC[C@H](O[C@@H]4O[C@H](CO)[C@@H](O)[C@H](O)[C@H]4O)C(C)(C)[C@@H]3CC[C@]12C` [XVII, ginsenoside XVII], in series [2], the hepatoprotective activity result is “showed hepatoprotective activity”.

For the compound `CC(C)=CCC[C@](C)(O)[C@H]1CC[C@]2(C)[C@@H]1[C@H](O)C[C@@H]1[C@@]3(C)CC[C@H](O[C@@H]4O[C@H](CO[C@@H]5OC[C@@H](O)[C@H](O)[C@H]5O)[C@@H](O)[C@H](O)[C@H]4O[C@@H]4O[C@H](CO)[C@@H](O)[C@H](O)[C@H]4O)C(C)(C)[C@@H]3CC[C@]12C` [chikusetsusaponin III], the “ID50, reduced yield of herpes simplex virus type I” value in series [3] is 29 µM.

With `CC(C)=CCC[C@](C)(O[C@@H]1O[C@H](CO)[C@@H](O)[C@H](O)[C@H]1O)[C@H]1CC[C@]2(C)[C@@H]1[C@H](O)C[C@@H]1[C@@]3(C)CC[C@H](O)C(C)(C)[C@@H]3[C@@H](O[C@@H]3O[C@H](CO)[C@@H](O)[C@H](O)[C@H]3O[C@@H]3OC[C@@H](O)[C@H](O)[C@H]3O)C[C@]12C` [notoginsenoside R1], the hepatoprotective activity result in series [2] was “showed hepatoprotective activity”.

These data come from article PMC4050313, “Panaxadiol and Panaxatriol Derivatives as Anti-Hepatitis B Virus Inhibitors” (Natural Products and Bioprospecting, 2014).
